Assay results: the SangsterLogP compilation

Assay: method code SF-HPLC, from DOI: 10.1002/jps.2600810814, PMID: 1403725

| Compound | logP |
| --- | --- |
| CCN(N=O)C(C)C | 1 |
| CCCCN(CCCC)N=O | 2.73 |
| CCCN(CCC)N=O | 1.61 |
| CN(N=O)C(C)(C)C | 0.86 |
| CCCCN(CCC)N=O | 2.13 |
| CCCN(C)N=O | 0.61 |
| CC(C)CN(CC(C)C)N=O | 2.39 |
| CCCCCN(CCCCC)N=O | 3.91 |
| CCCCN(CC)N=O | 1.67 |
| CC(C)N(N=O)C(C)C | 1.48 |
| CCCCN(C)N=O | 1.12 |
| CCN(CC)N=O | 0.61 |
| CN(C)N=O | -0.38 |
| CCN(C)N=O | 0.08 |
